# Experiments:
# [1] = molecular target: T1, Human tPA (Activase) (Homo sapiens, UniProt P00750); test: Inhibition and light reactivation of tPA by Rz-NH-CINN-AP inhibitors, S-2288 chromogenic assay; format: biochemical; conditions: for Inhibition after 16 hrs incubation (%): ambient temperature, dark; for Light Reactivation (%): after blue light
# T1 construct: purchased Genentech Inc. Lot # E9034A
# Protocol: (§1) R is -tBOC, —H2^+, or mPEG5000. Human thrombin was modified with R—NH-CINN-AP inhibitors as follows: Thrombin (600 units; ˜3.5 nmol) in 50 mM sodium citrate buffer, 3 mM CaCl2, 7% kollidon, pH 7.0, was reacted with 3.5-35 nmol of the R—N-CINN-AP inhibitor for 12-18 hours at ambient temperature in the dark. Thrombin activities were measured under red light (“dark”) and after exposure to 10 seconds of blue light from a dental light and were assayed using S-2238 (diaPharma) at 30° C. Percentage inhibition was calculated as 100—dark activity. Dark activity was calculated as [activitydark÷activitycontrol]×100. Light reactivation was calculated as activitylight÷activtycontrol. The following are typical results.
# R2 is -tBOC, —-H2^+, or mPEG5000. The procedures of Examnple 4 was repeated except that Human tPA (Activase, Genentech Inc. Lot # E9034A) was modified with Rz—NH-CINN-AP inhibitors in place of thrombin. The reactions were carried out as follows: tPA (0.83 nmol) in 10 mM tris-HCl, 130 mM NaCl, pH 7.4 was reacted with 0.8 3-8.3 nmoles of the R—NH CINN-AP inhibitors for 12-18 hours at ambient temperature in the dark. Activities were calculated as for Example 4, using S-2288 (diaPharna).
# [2] = molecular target: Human thrombin (Homo sapiens, UniProt P00734); test: Inhibition and light reactivation of thrombin by R-NH-CINN-AP inhibitors, S-2238 chromogenic assay; format: biochemical; conditions: for Inhibition after 16 Hrs Incubation (%): ambient temperature, dark; for Light Reactivation (%): after 10 seconds of blue light, activity light/activity control
# Protocol: as §1
# [3] = Solubility in aqueous solution after removal of t-BOC; format: physicochemical; conditions: neutralized to pH 7.0
# Protocol: 3-[2-hydroxy-4-(ethyl)(2-tert-butyloxycarbamidoethyl)amino]phenyl-2-methylpropenoic acid, 4-aminoiminophenyl ester, HCl salt (15; 12 mg, 25 μmmol) was suspended in 1.2 ml of 3N HCl and mixed by inversion for 3 hours at ambient temperature to release the t-BOC group and generate 3-[2-hydroxy-4-(ethyl) aminoethyl)amino]phenyl-2-methylpropenoic acid, 4-aminoiminophenyl ester, HCl salt (16; N-CINN-AP). After 3 hours, the reaction was neutralized with 3N NaOH to give a final pH of 7.0.
# T1 sequence (P00750 36-562): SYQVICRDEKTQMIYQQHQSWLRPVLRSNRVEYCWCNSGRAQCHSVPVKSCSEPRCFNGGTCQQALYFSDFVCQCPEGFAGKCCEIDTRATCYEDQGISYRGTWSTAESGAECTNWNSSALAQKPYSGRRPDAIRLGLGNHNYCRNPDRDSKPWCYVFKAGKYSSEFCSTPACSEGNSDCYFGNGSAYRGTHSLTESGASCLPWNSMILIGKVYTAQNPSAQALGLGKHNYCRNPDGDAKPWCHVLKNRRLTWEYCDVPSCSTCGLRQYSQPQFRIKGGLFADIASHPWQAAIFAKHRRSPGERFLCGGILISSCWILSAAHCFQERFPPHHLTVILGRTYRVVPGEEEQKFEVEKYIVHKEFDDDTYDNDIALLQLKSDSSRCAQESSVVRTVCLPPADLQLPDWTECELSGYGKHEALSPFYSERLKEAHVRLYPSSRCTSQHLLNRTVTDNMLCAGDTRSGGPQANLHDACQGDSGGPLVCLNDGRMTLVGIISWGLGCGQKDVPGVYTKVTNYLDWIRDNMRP
Inhibition after 16 hrs incubation (%) ([1]; inhibitor excess 5×),Light Reactivation (%) ([1]; inhibitor excess 10×),Inhibition after 16 hrs incubation (%) ([1]; inhibitor excess 10×),Inhibition after 16 Hrs Incubation (%) ([2]; inhibitor excess 1×),Inhibition after 16 Hrs Incubation (%) ([2]; inhibitor excess 5×),Light Reactivation (%) ([2]; inhibitor excess 10×),Inhibition after 16 Hrs Incubation (%) ([2]; inhibitor excess 10×),Solubility (in words) [3],SMILES,tPA inhibition (in words) ([1]; Table 2),Thrombin inhibition (in words) ([2]; summary of Table 1)
78%,78%,88%,21%,70%,64%,96%,soluble in aqueous solution,CCN(CCN)c1ccc(C=C(C)C(=O)Oc2ccc(C(=N)N)cc2)c(O)c1.Cl [#16],less effective inhibitor at lower molar ratios,less effective inhibitor at lower molar ratios
95%,87%,95%,94%,98%,72%,97%,,"CCN(CCNC(=O)OC(C)(C)C)c1ccc(C=C(C)C(=O)Oc2ccc(C(=N)N)cc2)c(O)c1.Cl [#15, 3-[2-hydroxy-4-(ethyl)(2-tert-butyloxycarbamidoethyl)amino]-phenyl-2-methylpropenoic acid, 4-aminoiminophenyl ester, HCl salt]",,
